Assay results taken from patent US9273028B2, “Heterocyclic tyrosine kinase inhibitors” (Biogen MA Inc., priority 2010, dated 2016).

Experiments:
Assay type in all cases: biochemical
[1] = biological target: T1, Itk (Homo sapiens, UniProt Q08881); experiment: Itk kinase selectivity assay (Example 142 procedure, Table 3 modifications); settings: ATP 10 μM
T1 construct: purchased Carna Bioscience 08-181
T1 sequence (Q08881 1-620): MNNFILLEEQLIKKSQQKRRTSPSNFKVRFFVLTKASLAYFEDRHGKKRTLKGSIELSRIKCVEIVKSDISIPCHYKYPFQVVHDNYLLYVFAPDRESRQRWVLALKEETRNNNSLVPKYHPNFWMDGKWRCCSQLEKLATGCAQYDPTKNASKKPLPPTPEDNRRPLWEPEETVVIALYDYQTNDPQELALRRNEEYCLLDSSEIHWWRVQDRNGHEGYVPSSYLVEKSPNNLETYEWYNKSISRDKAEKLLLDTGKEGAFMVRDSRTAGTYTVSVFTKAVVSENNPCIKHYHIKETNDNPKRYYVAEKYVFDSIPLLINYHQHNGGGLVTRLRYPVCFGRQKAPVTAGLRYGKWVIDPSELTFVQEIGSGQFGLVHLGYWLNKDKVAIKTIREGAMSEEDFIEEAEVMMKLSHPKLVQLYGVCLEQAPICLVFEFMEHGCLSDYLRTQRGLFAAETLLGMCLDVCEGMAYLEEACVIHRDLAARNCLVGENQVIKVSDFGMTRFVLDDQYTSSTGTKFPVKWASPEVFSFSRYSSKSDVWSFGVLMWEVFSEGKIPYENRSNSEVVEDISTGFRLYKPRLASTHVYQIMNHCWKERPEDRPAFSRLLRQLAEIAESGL
Procedure: (§1) The purpose of the Tec in vitro assay is to determine compound potency against Tec through the measurement of IC50. Compound inhibition is measured after monitoring the amount of phosphorylation of a fluorescein-labeled polyGT peptide (Invitrogen PV3610) in the presence of active Tec enzyme (Carna Biosciences 08-182), ATP, and inhibitor. The Tec kinase reaction was done in a black 96 well plate (costar 3694). For a typical assay, a 29 μL aliquot of a ATP/peptide master mix (final concentration; ATP 25 μM, polyGT 100 nM) in kinase buffer (10 mM Tris-HCl pH 7.5, 10 mM MgCl2, 200 μM Na3PO4, 5 mM DTT, 0.01% Triton X-100, and 0.2 mg/ml casein) is added to each well. Next, 1 μL of a 3-fold, 50× compound titration in 100% DMSO solvent is added, followed by adding 20 uL of Tec enzyme mix in 1× kinase buffer (with a final concentration of 0.125 nM). The assay is incubated for 15 minutes before being stopped with 5 μl, of a 220 mM EDTA solution. Aliquots (5 μL) of the kinase reaction are transferred to a low volume white 384 well plate (Corning 3674), and 5 μL of a 2× detection buffer (Invitrogen PV3574, with 2 nM Tb-PY20 antibody, Invitrogen PV3552) is added. The plate is covered and incubated for 45 minutes at room temperature. Time resolved fluorescence (TRF) on Molecular Devices M5 (332 nm excitation; 488 nm emission; 518 nm fluorescein emission) is measured.
(§2) Using the procedure described in Example 142, with the modifications shown in Table 3, selectivity for Itk, Txk, and Lck was measured.

[2] = biological target: T2, Txk (Homo sapiens, UniProt P42681); experiment: Txk kinase selectivity assay (Example 142 procedure, Table 3 modifications); settings: ATP 100 μM
T2 construct: purchased Carna Bioscience 08-183
T2 sequence (P42681 1-527): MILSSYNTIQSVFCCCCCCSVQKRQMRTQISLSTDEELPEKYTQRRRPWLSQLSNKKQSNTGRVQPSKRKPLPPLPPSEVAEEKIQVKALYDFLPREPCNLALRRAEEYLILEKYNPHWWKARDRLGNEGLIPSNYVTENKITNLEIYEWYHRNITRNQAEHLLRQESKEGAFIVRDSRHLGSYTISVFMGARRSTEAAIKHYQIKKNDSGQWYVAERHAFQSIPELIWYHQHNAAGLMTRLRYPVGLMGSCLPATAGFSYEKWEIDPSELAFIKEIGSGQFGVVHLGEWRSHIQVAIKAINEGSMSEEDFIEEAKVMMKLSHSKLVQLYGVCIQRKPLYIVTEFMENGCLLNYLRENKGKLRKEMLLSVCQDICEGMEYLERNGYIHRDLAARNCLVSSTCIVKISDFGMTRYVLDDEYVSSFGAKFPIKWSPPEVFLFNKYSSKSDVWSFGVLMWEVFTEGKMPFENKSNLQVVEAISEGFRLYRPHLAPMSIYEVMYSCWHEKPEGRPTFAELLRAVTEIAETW
Procedure: as §1, §2

[3] = biological target: T3, Lck (Homo sapiens, UniProt P06239); experiment: Lck kinase selectivity assay (Example 142 procedure, Table 3 modifications); settings: ATP 5 μM
T3 construct: purchased Carna Bioscience 08-170
T3 sequence (P06239 whole entry): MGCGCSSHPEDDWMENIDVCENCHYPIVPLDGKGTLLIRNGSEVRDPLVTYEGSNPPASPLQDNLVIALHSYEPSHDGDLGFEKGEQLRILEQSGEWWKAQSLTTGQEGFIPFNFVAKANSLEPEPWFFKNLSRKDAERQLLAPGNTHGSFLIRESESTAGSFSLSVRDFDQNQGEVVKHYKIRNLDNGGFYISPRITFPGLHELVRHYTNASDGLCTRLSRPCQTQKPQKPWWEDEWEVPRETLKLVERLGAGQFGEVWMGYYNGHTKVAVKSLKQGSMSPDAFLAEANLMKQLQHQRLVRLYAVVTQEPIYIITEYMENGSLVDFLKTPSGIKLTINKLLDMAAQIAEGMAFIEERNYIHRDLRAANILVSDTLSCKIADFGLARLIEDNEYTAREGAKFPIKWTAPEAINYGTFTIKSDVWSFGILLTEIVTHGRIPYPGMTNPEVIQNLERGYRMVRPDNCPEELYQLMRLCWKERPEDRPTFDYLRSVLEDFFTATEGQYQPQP
Procedure: as §1, §2

[4] = biological target: T4, Tec (Homo sapiens, UniProt P42680); experiment: In vitro Tec kinase selectivity assay (Tec-POLYGT-LS); settings: ATP 25 μM
T4 construct: purchased Carna Biosciences 08-182
T4 sequence (P42680 1-631): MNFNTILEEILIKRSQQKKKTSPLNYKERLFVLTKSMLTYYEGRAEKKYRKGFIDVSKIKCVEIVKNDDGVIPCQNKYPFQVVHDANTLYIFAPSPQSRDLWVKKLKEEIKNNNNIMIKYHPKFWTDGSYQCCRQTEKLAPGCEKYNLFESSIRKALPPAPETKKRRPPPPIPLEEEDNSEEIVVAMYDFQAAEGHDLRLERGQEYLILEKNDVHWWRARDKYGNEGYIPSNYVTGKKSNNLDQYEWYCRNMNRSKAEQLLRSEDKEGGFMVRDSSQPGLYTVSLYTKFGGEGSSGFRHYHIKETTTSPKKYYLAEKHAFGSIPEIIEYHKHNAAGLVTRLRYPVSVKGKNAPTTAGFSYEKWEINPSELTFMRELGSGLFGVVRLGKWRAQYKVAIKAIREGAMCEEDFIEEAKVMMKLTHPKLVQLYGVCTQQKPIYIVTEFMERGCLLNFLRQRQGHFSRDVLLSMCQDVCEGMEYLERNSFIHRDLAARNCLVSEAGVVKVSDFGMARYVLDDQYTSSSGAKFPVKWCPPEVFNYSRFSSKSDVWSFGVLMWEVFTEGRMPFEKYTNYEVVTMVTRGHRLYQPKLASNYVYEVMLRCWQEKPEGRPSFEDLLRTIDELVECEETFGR
Procedure: In Vitro Tec Kinase Selectivity Assay
as §1

[5] = biological target: T5, BTK (Homo sapiens, UniProt Q06187); experiment: In vitro BTK kinase assay (BTK-POLYGAT-LS); settings: IC50 (10 uM ATP)
T5 construct: purchased Upstate 14-552
T5 sequence (Q06187 whole entry): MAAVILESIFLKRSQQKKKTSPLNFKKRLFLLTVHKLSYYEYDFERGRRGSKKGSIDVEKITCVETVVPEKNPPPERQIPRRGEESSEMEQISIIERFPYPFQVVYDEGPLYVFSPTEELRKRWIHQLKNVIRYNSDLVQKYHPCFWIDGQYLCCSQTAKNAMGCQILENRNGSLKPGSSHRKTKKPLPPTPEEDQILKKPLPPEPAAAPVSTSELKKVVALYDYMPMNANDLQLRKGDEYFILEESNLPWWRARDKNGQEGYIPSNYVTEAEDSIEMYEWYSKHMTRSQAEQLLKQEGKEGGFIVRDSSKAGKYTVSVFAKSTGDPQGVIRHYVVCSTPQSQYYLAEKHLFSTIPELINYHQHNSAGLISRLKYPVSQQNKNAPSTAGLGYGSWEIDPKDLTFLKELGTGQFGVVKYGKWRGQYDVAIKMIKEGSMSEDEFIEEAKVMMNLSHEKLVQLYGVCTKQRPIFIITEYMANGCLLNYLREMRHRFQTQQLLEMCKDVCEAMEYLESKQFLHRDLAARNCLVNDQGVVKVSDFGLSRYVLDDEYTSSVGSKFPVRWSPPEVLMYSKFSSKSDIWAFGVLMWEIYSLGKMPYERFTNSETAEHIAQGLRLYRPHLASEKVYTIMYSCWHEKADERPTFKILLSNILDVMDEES
Method in brief: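 Poly-GAT peptide at 100 nM with 10 μM ATP (final) in pH 7.5 Tris buffer containing MgCl2, DTT, Triton X-100 and 0.2 mg/ml casein.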

CN(c1ncnc2[nH]ccc12)[C@@H]1CCCN(C(=O)CNc2cc(Cl)cc(Cl)c2)C1 [Compound 209]
IC50 [1]: 100 to 999 nM
IC50 [2]: 1000 to 10000 nM
IC50 [3]: 100 to 999 nM
IC50 [4]: 100 to 999 nM

O=C(CNc1ccccc1S(=O)(=O)c1ccccc1)N1CCC2CCN(c3ncnc4[nH]ccc34)C2C1 (stereo not shown) [Compound 114]
IC50 [1]: 100 to 999 nM
IC50 [2]: 100 to 999 nM
IC50 [3]: > 10000 nM
IC50 [4]: 100 to 999 nM

O=C(CNc1cc(Cl)cc(Cl)c1)N1CCC2CCN(c3ncnc4[nH]ccc34)C2C1 (stereo not shown) [Compound 183]
IC50 [1]: < 100 nM
IC50 [2]: 100 to 999 nM
IC50 [3]: 100 to 999 nM
IC50 [4]: < 100 nM

O=C(CNc1ccccc1S(=O)(=O)N1CCCCC1)N1CCC2CCN(c3ncnc4[nH]ccc34)C2C1 (stereo not shown) [Compound 113]
IC50 [1]: 1000 to 10000 nM
IC50 [2]: 1000 to 10000 nM
IC50 [3]: > 10000 nM
IC50 [4]: 1000 to 10000 nM

CC1C(Nc2ncnc3[nH]ccc23)CCCN1C(=O)CNc1cc(Cl)cc(Cl)c1 (stereo not shown) [Compound 105]
IC50 [1]: 100 to 999 nM
IC50 [2]: 1000 to 10000 nM
IC50 [3]: 100 to 999 nM
IC50 [4]: 100 to 999 nM

NC(=O)c1cnc2[nH]ccc2c1N[C@H]1CCCN(C(=O)CNc2cc(Cl)cc(Cl)c2)[C@H]1C(F)(F)F [Compound 226]
IC50 [1]: < 100 nM
IC50 [2]: < 100 nM
IC50 [5]: < 100 nM
IC50 [4]: < 100 nM

C[C@@H]1[C@H](Nc2ncnc3[nH]ccc23)CCCN1C(=O)CNc1cc(Cl)cc(Cl)c1 [Compound 89]
IC50 [1]: 100 to 999 nM
IC50 [4]: < 100 nM

O=C(CNc1cc(Cl)cc(Cl)c1)N1CC[C@@H]2CCN(c3ncnc4[nH]ccc34)[C@@H]2C1 [Compound 124]
IC50 [1]: 100 to 999 nM
IC50 [2]: 100 to 999 nM
IC50 [3]: 100 to 999 nM
IC50 [4]: < 100 nM

O=C(CNc1cc(F)cc(Cl)c1)N1CCCC(Nc2ncnc3[nH]ccc23)C1C(F)(F)F (stereo not shown) [Compound 23]
IC50 [1]: 1000 to 10000 nM
IC50 [5]: < 100 nM
IC50 [4]: 100 to 999 nM

O=C(CNc1cc(Cl)cc(Cl)c1)N1CC[C@H]2CCN(c3ncnc4[nH]ccc34)[C@H]2C1 [Compound 123]
IC50 [1]: < 100 nM
IC50 [2]: 100 to 999 nM
IC50 [3]: 100 to 999 nM
IC50 [4]: < 100 nM

C[C@@H]1[C@H](Nc2ncnc3[nH]ncc23)CCCN1C(=O)CNc1cc(Cl)cc(Cl)c1 [Compound 29]
IC50 [1]: 100 to 999 nM
IC50 [5]: < 100 nM
IC50 [4]: < 100 nM

C[C@@H]1[C@H](Nc2ncnc3[nH]ncc23)CCCN1C(=O)CNc1cc(F)cc(Cl)c1 [Compound 25]
IC50 [1]: 100 to 999 nM
IC50 [5]: < 100 nM
IC50 [4]: 100 to 999 nM

CN(c1ncnc2[nH]ncc12)C1CCCCN(C(=O)CNc2cc(Cl)cc(Cl)c2)C1 (stereo not shown) [Compound 167]
IC50 [1]: 1000 to 10000 nM
IC50 [2]: > 10000 nM
IC50 [3]: 1000 to 10000 nM
IC50 [4]: 100 to 999 nM

O=C(CNc1cc(Cl)cc(Cl)c1)N1CCC[C@@H](Nc2c(-c3ccc(C(=O)N4CCC(O)CC4)cc3)cnc3[nH]ccc23)C1 [Compound 2]
IC50 [5]: < 100 nM

CN(c1ncnc(N)c1C#N)[C@H]1CCCN(C(=O)CNc2cc(Cl)cc(Cl)c2)C1 [Compound 116]
IC50 [5]: > 10000 nM

CCC1C(Nc2ncnc(N)c2F)CCCN1C(=O)CNc1cc(F)cc(Cl)c1 (stereo not shown) [Compound 5]
IC50 [5]: 1000 to 10000 nM

CC1C(Nc2ncnc3[nH]ncc23)CCCN1C(=O)CNc1ccccc1S(=O)(=O)N1CCCCC1 (stereo not shown) [Compound 67]
IC50 [1]: 1000 to 10000 nM
IC50 [5]: < 100 nM
IC50 [4]: 100 to 999 nM

CCN(c1ncnc2[nH]ccc12)[C@H]1CCCN(C(=O)CNc2cc(Cl)cc(Cl)c2)C1 [Compound 126]
IC50 [5]: > 10000 nM

CN(c1ncnc2[nH]ccc12)C1CCCN(C(=O)CNc2cc(Cl)cc(Cl)c2)C1C(F)(F)F (stereo not shown) [Compound 14]
IC50 [5]: < 100 nM

O=C(CNc1cc(Cl)cc(Cl)c1)N1CC[C@H](Nc2ncnc3[nH]ncc23)C1 [Compound 147]
IC50 [5]: > 10000 nM

O=C([C@H](Nc1cc(Cl)cc(Cl)c1)C1CC1)N1CCC[C@@H](Nc2ncnc3[nH]ccc23)C1 [Compound 207]
IC50 [5]: 100 to 999 nM

O=C(CNc1cc(Cl)cc(Cl)c1)N1CCC[C@@H](Nc2ncnc3[nH]ccc23)C1 [Compound 220]
IC50 [1]: 1000 to 10000 nM
IC50 [2]: > 10000 nM
IC50 [3]: > 10000 nM
IC50 [4]: 100 to 999 nM

CCCN(c1ncnc2[nH]ccc12)[C@H]1CCCN(C(=O)CNc2cc(Cl)cc(Cl)c2)C1 [Compound 118]
IC50 [5]: > 10000 nM

O=C(CNc1cc(C(F)(F)F)cc(C(F)(F)F)c1)N1CCC[C@H](Nc2ncnc3[nH]ccc23)C1 [Compound 187]
IC50 [5]: 1000 to 10000 nM

CN(c1ncnc2[nH]ccc12)C1CCCCN(C(=O)CNc2cc(Cl)cc(Cl)c2)C1 (stereo not shown) [Compound 143]
IC50 [1]: > 10000 nM
IC50 [2]: > 10000 nM
IC50 [3]: > 10000 nM
IC50 [4]: > 10000 nM

C[C@@H]1C[C@H](N(C)c2ncnc3[nH]ccc23)CN(C(=O)CNc2cc(Cl)cc(Cl)c2)C1 [Compound 98]
IC50 [5]: < 100 nM

CCCN(c1ncnc2[nH]ccc12)C1CCCN(C(=O)CNc2cc(Cl)cc(Cl)c2)C1 (stereo not shown) [Compound 106]
IC50 [5]: < 100 nM

CCN(c1ncnc2[nH]ccc12)C1CCCN(C(=O)CNc2cc(Cl)cc(Cl)c2)C1 (stereo not shown) [Compound 108]
IC50 [5]: 100 to 999 nM

O=C(CNc1cc(Cl)cc(Cl)c1)N1CCCC(Nc2ncnc3[nH]ccc23)C1C(F)(F)F (stereo not shown) [Compound 19]
IC50 [5]: < 100 nM

O=C(CNc1cc(Cl)cc(Cl)c1)N1CCCC(N(CCN2CCCC2)c2ncnc3[nH]ccc23)C1 (stereo not shown) [Compound 54]
IC50 [5]: 1000 to 10000 nM

O=C(CNc1ccccc1F)N1CCC[C@H](Nc2ncnc3[nH]ccc23)C1 [Compound 194]
IC50 [5]: > 10000 nM

CN(c1ncnc2[nH]ccc12)[C@@H]1CCCN(C(=O)CNc2cc(C(F)(F)F)cc(C(F)(F)F)c2)C1 [Compound 166]
IC50 [5]: > 10000 nM

CN(c1cc(N)ncn1)[C@H]1CCCN(C(=O)CNc2cc(Cl)cc(Cl)c2)C1 [Compound 144]
IC50 [5]: > 10000 nM

O=C(CNc1cc(Cl)cc(Cl)c1)N1CCC[C@@H](N(CCO)c2ncnc3[nH]ccc23)C1 [Compound 35]
IC50 [5]: < 100 nM
